# Read-outs that look alike come from different tables or passages of the source.
# What was measured:
# [1] = rat, in vivo, sc; cited from earlier work
# [2] = native OXT; cited from earlier work
# Source text: This OXT analog is a full agonist at OXT receptor, and it addressed some of the limitations of using OXT as a weight loss therapeutic.
# [3] = system: diet-induced obese (DIO) Sprague Dawley rats; test: Post-treatment serum levels after the 22-day treatment; format: in vivo, rat; settings: serum, 2 h post final injection after 22 days; mean ± SEM; n = 6 (Oxytocin n = 4)
# Protocol: Cardiac puncture was used to collect blood for analysis 2 h post final injection. Commercially available enzyme-linked immunosorbent assays (ELISA) were used for quantitative assessment of leptin (cat. # EZRL-83K; MilliporeSigma, Burlington, MA, USA), insulin (cat. # EZRMI-13K; MilliporeSigma, Burlington, MA, USA), and adiponectin (cat. # EZRAPD-62K MilliporeSigma, Burlington, MA, USA). Serum samples were diluted 1:500 for the adiponectin ELISA using the sample diluent provided with the kit. All ELISAs were completed following the manufacturers recommendations. Levels of glucose, cholesterol (total, HDL, and calculated LDL), triglycerides, ALT, and AST were determined in the serum on a Modular P chemistry analyzer (Roche Diagnostics, Risch-Rotkreuz, Switzerland) by the University of Washington Nutrition and Obesity Research Center’s Analytic Core (Seattle, WA, USA).
# [4] = mouse, in vivo, sc; cited from earlier work
compound,measurement,setting,value
"CC[C@H](C)[C@@H]1NC(=O)[C@H](Cc2ccc(O)cc2)NC(=O)[C@@H](N)CSSC[C@@H](C(=O)N2CCC[C@H]2C(=O)N[C@@H](CC(C)C)C(=O)NCC(N)=O)NC(=O)[C@H](CC(N)=O)NC(=O)[C@H](CCC(N)=O)NC1=O [OXT, oxytocin]",CLplasma,[1],17.1 mL/min/kg
same,T1/2,[1],7.2 min
same,Vd,[1],0.085 L/kg
same,half-life in vivo,[2],~5 min
same,ALT,[3],40 ± 5 U/L
same,AST,[3],128 ± 22 U/L
same,Cmax,[4],216 nM
same,Free Cmax,[4],191 nM
same,T1/2,[4],30 min
same,Tmax,[4],15 min
